Measured values as given in patent US20260226493A1, “HERBICIDE RESISTANT PLANTS” (SYNGENTA CROP PROTECTION AG, priority 2023, published 2026).

Columns and labels:
Experiment in all cases: BIO3-BIO1 mutant enzyme activity in the presence of herbicide, percentage inhibition (fluorometric DAPA assay)
Assay type in all cases: biochemical
Conditions in all cases: read-out: percentage inhibition
[1] = target: T1, Arabidopsis thaliana BIO3-BIO1 (BioDA) mutants (Arabidopsis thaliana, UniProt B0F481, F348D)
T1 construct: with the predicted N-terminal mitochondrial transit peptide removed; 6xHis-tag (N); thrombin cleavage site (N); made in house; host or cells: E. coli BL21 (DE3) bioA
From the text: (§1) A pet-24 plasmid containing a DNA sequence encoding each identified variant mutant of BIO3-BIO1 derived from Arabidopsis thaliana from example 5 above, as shown in Table 13 below and as shown in full in SEQ ID NOs: 15 to 155, codon-optimised for expression in E. coli, with an N-terminal 6×His-tag and thrombin cleavage site and under control of a T7 promoter, and was synthesised by Twist Bioscience, in a similar manner to SEQ ID NO:311. These plasmids were then expressed in E. coli BL21 (DE3) bioA with 50 μg/mL kanamycin and 25 μg/mL chloramphenicol selection. Overnight cultures grown at 37° C. were used to inoculate 8×500 mL AIM in shake flasks at a ratio of 1:100. Cultures were grown at 37° C., 200 rpm for 3.5 hours and then overnight at 20° C. Cells were harvested by centrifugation for 30 minutes at 10 000 g. Cells were stored at −80° C. until extraction. 30 g of cell pellet from was thawed in 120 mL of IMAC buffer A (20 mM HEPES pH7.5, 25 mM imidazole, 500 mM sodium chloride, 0.15 mM pyridoxal phosphate, 0.5 mM TCEP, 1× complete Protease Inhibitor Tablet (Roche)). The resuspension was passed through a cell disrupter at 18 000 PSI and centrifuged at 50 000 g for 25 minutes at 4° C. The His-tagged BIO3-BIO1 protein was purified from the extract supernatant on an AKTA avant chromatography system (Cytiva) using a HisTrap FF column and eluted in IMAC buffer B ((20 mM HEPES pH7.5, 500 mM imidazole, 500 mM sodium chloride, 0.15 mM pyridoxal phosphate, 0.5 mM TCEP) followed by SEC using a HiLoad 26/60 Superdex200 column in SEC buffer (25 mM HEPES pH7.5, 150 mM sodium chloride, 0.15 mM pyridoxal phosphate, 0.5 mM TCEP). Protein concentration was measured and calculated using the absorbance at 280 nm. Extracts were diluted 1 in 4 and 10 uL was analysed by SDS PAGE.
(§2) To measure BIO3-BIO1 mutant enzyme activity in the presence of herbicide, herbicides were incubated with 20 μL of enzyme mix (100 mM EPPS pH 8.6, 0.1 mM pyridoxal phosphate, 0.1 mg/mL BSA, 50 nM BIO3-BIO1 enzyme) for 10 minutes at 20° C. in a well of a 96-well half-area black plate, followed by the addition of 20 μL of substrate mix (final concentration of 100 mM EPPS pH 8.6, 0.1 mM pyridoxal phosphate, 0.1 mg/mL BSA, 100 μM spermidine, 20 μM KAPA, 100 mM NaCO3) and further incubation for 75 minutes at 20° C. The reaction was terminated by the addition of 50 μL of derivatisation mix (final concentration of 250 mM borate NaOH pH 9.4, 3.6 mM o-phthalaldehyde, 7 mM β-mercaptoethanol, 17% (v/v) ethanol, 3.6% (v/v) methanol). The fluorescent product produced by the reaction of DAPA with o-phthalaldehyde and 7 mM β-mercaptoethanol was measured at 470 nm after excitation at 410 nm. The percentage inhibition was calculated as the activity in the presence of one of three concentrations of each herbicide compound A to M (note that the compounds labelled as A to M are identified hereinabove in the relevant section of the description) as a percentage of the activity in DMSO (Table 12 and 13). The percentage activity versus WT was also calculated and is shown in Table 13 and 14 (NT indicates mutation not tested in table 13, note that these mutations are tested at different compound concentrations for compounds L, M and C, and the results are shown in table 14).

[2] = target: T2, Arabidopsis thaliana BIO3-BIO1 (BioDA) mutants (Arabidopsis thaliana, UniProt B0F481, Q517F)
T2 construct: with the predicted N-terminal mitochondrial transit peptide removed; 6xHis-tag (N); thrombin cleavage site (N); made in house; host or cells: E. coli BL21 (DE3) bioA
From the text: as §1, §2

[3] = target: T3, Arabidopsis thaliana BIO3-BIO1 (BioDA) mutants (Arabidopsis thaliana, UniProt B0F481, G513L)
T3 construct: with the predicted N-terminal mitochondrial transit peptide removed; 6xHis-tag (N); thrombin cleavage site (N); made in house; host or cells: E. coli BL21 (DE3) bioA
From the text: as §1, §2

[4] = target: T4, Arabidopsis thaliana BIO3-BIO1 (BioDA) mutants (Arabidopsis thaliana, UniProt B0F481, C388D)
T4 construct: with the predicted N-terminal mitochondrial transit peptide removed; 6xHis-tag (N); thrombin cleavage site (N); made in house; host or cells: E. coli BL21 (DE3) bioA
From the text: as §1, §2

[5] = target: T5, Arabidopsis thaliana BIO3-BIO1 (BioDA) mutants (Arabidopsis thaliana, UniProt B0F481, Y511P)
T5 construct: with the predicted N-terminal mitochondrial transit peptide removed; 6xHis-tag (N); thrombin cleavage site (N); made in house; host or cells: E. coli BL21 (DE3) bioA
From the text: as §1, §2

[6] = target: T6, Arabidopsis thaliana BIO3-BIO1 (BioDA) mutants (Arabidopsis thaliana, UniProt B0F481, Q517D)
T6 construct: with the predicted N-terminal mitochondrial transit peptide removed; 6xHis-tag (N); thrombin cleavage site (N); made in house; host or cells: E. coli BL21 (DE3) bioA
From the text: as §1, §2

[7] = target: T7, Arabidopsis thaliana BIO3-BIO1 (BioDA) mutants (Arabidopsis thaliana, UniProt B0F481, W392G)
T7 construct: with the predicted N-terminal mitochondrial transit peptide removed; 6xHis-tag (N); thrombin cleavage site (N); made in house; host or cells: E. coli BL21 (DE3) bioA
From the text: as §1, §2

[8] = target: T8, Arabidopsis thaliana BIO3-BIO1 (BioDA) mutants (Arabidopsis thaliana, UniProt B0F481, G610H)
T8 construct: with the predicted N-terminal mitochondrial transit peptide removed; 6xHis-tag (N); thrombin cleavage site (N); made in house; host or cells: E. coli BL21 (DE3) bioA
From the text: as §1, §2

[9] = target: T9, Arabidopsis thaliana BIO3-BIO1 (BioDA) mutants (Arabidopsis thaliana, UniProt B0F481, Y511E)
T9 construct: with the predicted N-terminal mitochondrial transit peptide removed; 6xHis-tag (N); thrombin cleavage site (N); made in house; host or cells: E. coli BL21 (DE3) bioA
From the text: as §1, §2

[10] = target: T10, Arabidopsis thaliana BIO3-BIO1 (BioDA) mutants (Arabidopsis thaliana, UniProt B0F481, W392S)
T10 construct: with the predicted N-terminal mitochondrial transit peptide removed; 6xHis-tag (N); thrombin cleavage site (N); made in house; host or cells: E. coli BL21 (DE3) bioA
From the text: as §1, §2

[11] = target: T11, Arabidopsis thaliana BIO3-BIO1 (BioDA) mutants (Arabidopsis thaliana, UniProt B0F481, S509D)
T11 construct: with the predicted N-terminal mitochondrial transit peptide removed; 6xHis-tag (N); thrombin cleavage site (N); made in house; host or cells: E. coli BL21 (DE3) bioA
From the text: as §1, §2

[12] = target: T12, Arabidopsis thaliana BIO3-BIO1 (BioDA) mutants (Arabidopsis thaliana, UniProt B0F481, Q517H)
T12 construct: with the predicted N-terminal mitochondrial transit peptide removed; 6xHis-tag (N); thrombin cleavage site (N); made in house; host or cells: E. coli BL21 (DE3) bioA
From the text: as §1, §2

T11 sequence (B0F481 23-833 S509D): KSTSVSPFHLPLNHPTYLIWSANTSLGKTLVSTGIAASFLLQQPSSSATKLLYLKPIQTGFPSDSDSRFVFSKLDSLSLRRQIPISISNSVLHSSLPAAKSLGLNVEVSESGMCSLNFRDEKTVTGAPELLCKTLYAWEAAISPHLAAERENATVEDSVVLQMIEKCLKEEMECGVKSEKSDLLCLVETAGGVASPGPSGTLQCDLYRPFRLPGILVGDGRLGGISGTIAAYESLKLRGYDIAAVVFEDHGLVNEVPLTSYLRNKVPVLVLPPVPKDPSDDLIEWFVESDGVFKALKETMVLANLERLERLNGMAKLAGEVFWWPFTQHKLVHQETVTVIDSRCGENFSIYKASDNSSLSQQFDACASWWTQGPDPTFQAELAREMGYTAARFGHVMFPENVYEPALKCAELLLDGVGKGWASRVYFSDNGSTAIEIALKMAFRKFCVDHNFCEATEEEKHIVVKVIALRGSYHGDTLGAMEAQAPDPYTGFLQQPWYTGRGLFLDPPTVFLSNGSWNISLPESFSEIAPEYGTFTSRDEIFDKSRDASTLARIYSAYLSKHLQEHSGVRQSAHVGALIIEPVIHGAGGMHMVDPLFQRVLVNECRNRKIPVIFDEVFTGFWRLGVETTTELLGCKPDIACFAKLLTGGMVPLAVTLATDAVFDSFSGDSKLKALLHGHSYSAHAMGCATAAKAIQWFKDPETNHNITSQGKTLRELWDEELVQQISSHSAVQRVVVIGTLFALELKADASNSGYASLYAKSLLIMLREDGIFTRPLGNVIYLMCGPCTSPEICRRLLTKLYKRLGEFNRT
T12 sequence (B0F481 23-833 Q517H): as the sequence (B0F481 23-833 S509D) above, with D487S, Q495H counted along it
T6 sequence (B0F481 23-833 Q517D): as the sequence (B0F481 23-833 S509D) above, with D487S, Q495D counted along it
T3 sequence (B0F481 23-833 G513L): as the sequence (B0F481 23-833 S509D) above, with D487S, G491L counted along it
T4 sequence (B0F481 23-833 C388D): as the sequence (B0F481 23-833 S509D) above, with C366D, D487S counted along it
T7 sequence (B0F481 23-833 W392G): as the sequence (B0F481 23-833 S509D) above, with W370G, D487S counted along it
T5 sequence (B0F481 23-833 Y511P): as the sequence (B0F481 23-833 S509D) above, with D487S, Y489P counted along it
T8 sequence (B0F481 23-833 G610H): as the sequence (B0F481 23-833 S509D) above, with D487S, G588H counted along it
T2 sequence (B0F481 23-833 Q517F): as the sequence (B0F481 23-833 S509D) above, with D487S, Q495F counted along it
T9 sequence (B0F481 23-833 Y511E): as the sequence (B0F481 23-833 S509D) above, with D487S, Y489E counted along it
T10 sequence (B0F481 23-833 W392S): as the sequence (B0F481 23-833 S509D) above, with W370S, D487S counted along it
T1 sequence (B0F481 23-833 F348D): as the sequence (B0F481 23-833 S509D) above, with F326D, D487S counted along it

| Compound | inhibition at 1 µM [1] | inhibition at 1 µM [2] | inhibition at 1 µM [3] | inhibition at 1 µM [4] | inhibition at 1 µM [5] | inhibition at 1 µM [6] | inhibition at 1 µM [7] | inhibition at 1 µM [8] | inhibition at 1 µM [9] | inhibition at 1 µM [10] | inhibition at 1 µM [11] | inhibition at 1 µM [12] | inhibition at 0.2 µM [1] | inhibition at 5 µM [1] | inhibition at 0.2 µM [2] | inhibition at 5 µM [2] | inhibition at 0.2 µM [3] | inhibition at 5 µM [3] | inhibition at 0.2 µM [4] | inhibition at 5 µM [4] | further results |
| --- | --- | --- | --- | --- | --- | --- | --- | --- | --- | --- | --- | --- | --- | --- | --- | --- | --- | --- | --- | --- | --- |
| CCOC(=O)c1nn(-c2ccc3c(c2)OC(F)(F)C(F)(F)O3)c2cccc(C(C)=O)c2c1=O [Compound A, ethyl 5-acetyl-4-oxo-1-(2,2,3,3-tetrafluoro-1,4-benzodioxin-6-yl)cinnoline-3-carboxylate] | 0% | 20% | 89% | 14% | 28% | 22% | 56% | 10% | 0% | 23% | 9% | 0% | – | – | – | – | – | – | – | – | – |
| CCn1c(C)c(-c2ccc(F)cc2F)c(=O)c(C(=O)O)c1-c1ccc(Cl)c(Cl)c1 [Compound C, 2-(3,4-dichlorophenyl)-5-(2,4-difluorophenyl)-1-ethyl-6-methyl-4-oxo-pyridine-3-carboxylic acid] | 13% | 55% | 92% | 0% | 95% | 0% | 20% | 58% | 74% | 0% | 91% | 44% | 8% | 0% | 29% | 85% | 69% | 98% | 5% | 9% | inhibition at 0.2 µM [5]: 53%; inhibition at 5 µM [5]: 99%; inhibition at 0.2 µM [6]: 0%; inhibition at 5 µM [6]: 0%; inhibition at 0.2 µM [7]: 0%; inhibition at 5 µM [7]: 69%; inhibition at 0.2 µM [8]: 19%; inhibition at 5 µM [8]: 82%; inhibition at 0.2 µM [9]: 27%; inhibition at 5 µM [9]: 96%; inhibition at 0.2 µM [10]: 0%; inhibition at 5 µM [10]: 20%; inhibition at 0.2 µM [11]: 59%; inhibition at 5 µM [11]: 103%; inhibition at 0.2 µM [12]: 11%; inhibition at 5 µM [12]: 77% |
| CCn1c(Cn2ccc(C(F)(F)F)n2)cc(=O)c(C(=O)O)c1-c1ccc(Cl)c(Cl)c1 [Compound L, 2-(3,4-dichlorophenyl)-1-ethyl-4-oxo-6-[[3-(trifluoromethyl)pyrazol-1-yl]methyl]pyridine-3-carboxylic acid] | – | – | – | – | – | – | – | – | – | – | – | – | – | – | – | – | – | – | – | – | inhibition at 0.01 µM [1]: 0%; inhibition at 0.075 µM [1]: 1%; inhibition at 0.5 µM [1]: 2%; inhibition at 0.01 µM [3]: 58%; inhibition at 0.075 µM [3]: 88%; inhibition at 0.5 µM [3]: 97%; inhibition at 0.01 µM [4]: 0%; inhibition at 0.075 µM [4]: 0%; inhibition at 0.5 µM [4]: 6%; inhibition at 0.01 µM [6]: 0%; inhibition at 0.075 µM [6]: 0%; inhibition at 0.5 µM [6]: 0%; inhibition at 0.01 µM [8]: 7%; inhibition at 0.075 µM [8]: 18%; inhibition at 0.5 µM [8]: 65% |
| CCn1c(-c2ccc(Cl)c(Cl)c2)c(C(=O)O)c(=O)c2cc(F)ccc21 [Compound M, 2-(3,4-dichlorophenyl)-1-ethyl-6-fluoro-4-oxo-quinoline-3-carboxylic acid] | 2% | 29% | 85% | 0% | 89% | 2% | 7% | 59% | 74% | 0% | 80% | 37% | 0% | 0% | 0% | 70% | 54% | 97% | 0% | 0% | inhibition at 0.2 µM [5]: 48%; inhibition at 5 µM [5]: 98%; inhibition at 0.2 µM [6]: 6%; inhibition at 5 µM [6]: 0%; inhibition at 0.2 µM [7]: 0%; inhibition at 5 µM [7]: 12%; inhibition at 0.2 µM [8]: 26%; inhibition at 5 µM [8]: 84%; inhibition at 0.2 µM [9]: 29%; inhibition at 5 µM [9]: 95%; inhibition at 0.2 µM [10]: 0%; inhibition at 5 µM [10]: 0%; inhibition at 0.2 µM [11]: 48%; inhibition at 5 µM [11]: 98%; inhibition at 0.2 µM [12]: 6%; inhibition at 5 µM [12]: 71% |
